Data as given in US11519913B2, “Metabolic disorder target” (University of Pittsburgh—Of the Commonwealth System of …, priority 2016, dated 2022).

System: kinases
Assay: Streamlined CETSA / dMS workflow with staurosporine
Type: binding
Conditions: staurosporine treated vs untreated samples
Excerpt: Initial experiments were designed to employ the ATP inhibitor staurosporine. Staurosporine is well documented as binding several different kinases, and so offers an a priori known binding event for study and method workup. The workflow for CETSA was streamlined. These improvements are based on two advantages: the use of factory made long heated columns for excellent chromatographic, and therefore sample to sample reproducibility, and the cloud computing platform, Chorus, which allows for the alignment and quantification of hundreds of thousands of mass spectrometric signals without the need to first identify said signals, see U.S. Pat. No. 6,906,320 “Mass Spectrometry Data Analysis Techniques,” incorporated herein by reference.
In the staurosporine analysis, the dMS workflow detected 270,822 features that were associated with 108,594 isotope groups. […] An important and distinguishing feature of the dMS workflow is that results are ranked on the basis of the quantitative data, and significant features may then be identified directly by reanalysis of the sample and acquisition of a MS2 spectrum with a retention time and m/z that matches the features of interest. This quantify first, identify second strategy greatly enhances the depth and precision of proteomic analysis compared to workflows that emphasize peptide identification rates. […]

## CN[C@@H]1C[C@H]2O[C@@](C)([C@@H]1OC)n1c3ccccc3c3c4c(c5c6ccccc6n2c5c31)C(=O)NC4 [staurosporine]
  Features at significance lower than p<0.0001, drug treated versus vehicle, that belong to kinases: 13 out of 16 belonged to kinases
